Experimental data: the OligoGym collection
HELM strings list units from the 5' end as sugar, base in round brackets, then linkage (d deoxyribose, r ribose, m 2'-O-methyl, p phosphodiester). Strings are as the collection lists them; they lack the last nucleoside at the 3' end of the tested compound. [moe] = 2'-O-(2-methoxyethyl) (MOE); [sp] = phosphorothioate linkage; [m5C] = 5-methylcytosine

The substances below were run against ATXN3 (assay: mouse, dose not given). Details: ASO.

| Substance | 3 h FOB score |
| --- | --- |
| RNA1{[moe](G)[sp].[moe]([m5C])p.[moe](A)p.[moe]([m5C])p.[moe](A)p.[moe]([m5C])p.d(T)[sp].d(T)[sp].d(T)[sp].d([m5C])[sp].d([m5C])[sp].d(T)[sp].d([m5C])[sp].d([m5C])[sp].d(T)[sp].d([m5C])[sp].[moe](A)p.[moe](A)[sp].[moe](T)}$$$$ (last 3' nucleoside missing) | 0 score 0-7 |
| RNA1{[moe](G)[sp].[moe]([m5C])p.[moe](A)p.[moe]([m5C])p.[moe]([m5C])p.[moe](A)p.d(T)[sp].d(A)[sp].d(T)[sp].d(A)[sp].d(T)[sp].d(A)[sp].d(T)[sp].d([m5C])[sp].d(T)[sp].d([m5C])[sp].[moe](A)p.[moe](G)[sp].[moe](A)}$$$$ (last 3' nucleoside missing) | 0.25 score 0-7 |
| RNA1{[moe](G)[sp].[moe]([m5C])p.[moe](A)p.[moe]([m5C])p.[moe]([m5C])p.d(A)[sp].d(T)[sp].d(A)[sp].d(T)[sp].d(A)[sp].d(T)[sp].d(A)[sp].d(T)[sp].d([m5C])[sp].d(T)[sp].[moe]([m5C])p.[moe](A)p.[moe](G)[sp].[moe](A)}$$$$ (last 3' nucleoside missing) | 1 score 0-7 |
| RNA1{[moe](G)[sp].[moe]([m5C])p.[moe](T)[sp].[moe]([m5C])[sp].[moe](A)[sp].d(T)[sp].d(T)[sp].d(T)[sp].d(A)[sp].d(T)[sp].d(T)[sp].d([m5C])[sp].d(T)[sp].d([m5C])[sp].d(A)[sp].[moe](A)[sp].[moe](G)p.[moe](T)[sp].[moe](A)}$$$$ (last 3' nucleoside missing) | 2 score 0-7 |
| RNA1{[moe](G)[sp].[moe]([m5C])p.[moe](T)p.[moe](A)p.[moe](T)[sp].d(A)[sp].d(A)[sp].d(T)[sp].d(T)[sp].d([m5C])[sp].d(T)[sp].d(T)[sp].d(G)[sp].d([m5C])[sp].d(T)[sp].[moe](T)p.[moe]([m5C])p.[moe](A)[sp].[moe](A)}$$$$ (last 3' nucleoside missing) | 1.75 score 0-7 |
| RNA1{[moe](G)[sp].[moe]([m5C])p.[moe](T)p.[moe]([m5C])p.[moe](A)p.[moe](T)p.d(T)[sp].d(T)[sp].d(A)[sp].d(T)[sp].d(T)[sp].d([m5C])[sp].d(T)[sp].d([m5C])[sp].d(A)[sp].d(A)[sp].[moe](G)p.[moe](T)[sp].[moe](A)}$$$$ (last 3' nucleoside missing) | 0 score 0-7 |
| RNA1{[moe](G)[sp].[moe]([m5C])p.[moe](T)p.[moe]([m5C])p.[moe](A)p.d(T)[sp].d(T)[sp].d(T)[sp].d(A)[sp].d(T)[sp].d(T)[sp].d([m5C])[sp].d(T)[sp].d([m5C])[sp].d(A)[sp].[moe](A)p.[moe](G)p.[moe](T)[sp].[moe](A)}$$$$ (last 3' nucleoside missing) | 1 score 0-7 |
| RNA1{[moe](G)[sp].[moe]([m5C])p.[moe]([m5C])[sp].[moe](A)[sp].[moe](A)[sp].d(A)[sp].d(A)[sp].d(T)[sp].d(A)[sp].d([m5C])[sp].d(T)[sp].d(A)[sp].d(A)[sp].d([m5C])[sp].d(A)[sp].[moe](T)[sp].[moe]([m5C])p.[moe](A)[sp].[moe](G)}$$$$ (last 3' nucleoside missing) | 2.5 score 0-7 |
| RNA1{[moe](G)[sp].[moe]([m5C])p.[moe]([m5C])p.[moe](A)p.[moe](A)[sp].d(T)[sp].d(A)[sp].d(T)[sp].d(T)[sp].d(T)[sp].d(A)[sp].d(T)[sp].d(A)[sp].d(G)[sp].d(G)[sp].[moe](T)p.[moe](G)p.[moe]([m5C])[sp].[moe](T)}$$$$ (last 3' nucleoside missing) | 3 score 0-7 |
| RNA1{[moe](G)[sp].[moe]([m5C])p.[moe]([m5C])p.[moe](A)p.[moe](A)p.d(T)[sp].d(A)[sp].d(T)[sp].d(T)[sp].d(T)[sp].d(A)[sp].d(T)[sp].d(A)[sp].d(G)[sp].d(G)[sp].[moe](T)p.[moe](G)p.[moe]([m5C])[sp].[moe](T)}$$$$ (last 3' nucleoside missing) | 1.5 score 0-7 |
| RNA1{[moe](G)[sp].[moe]([m5C])p.[moe]([m5C])p.[moe](A)p.[moe](T)p.[moe](T)p.d(A)[sp].d(A)[sp].d(T)[sp].d([m5C])[sp].d(T)[sp].d(A)[sp].d(T)[sp].d(A)[sp].d([m5C])[sp].d(T)[sp].[moe](G)p.[moe](A)[sp].[moe](A)}$$$$ (last 3' nucleoside missing) | 0 score 0-7 |
| RNA1{[moe](G)[sp].[moe]([m5C])p.[moe]([m5C])p.[moe](A)p.[moe](T)p.d(T)[sp].d(A)[sp].d(A)[sp].d(T)[sp].d([m5C])[sp].d(T)[sp].d(A)[sp].d(T)[sp].d(A)[sp].d([m5C])[sp].[moe](T)p.[moe](G)p.[moe](A)[sp].[moe](A)}$$$$ (last 3' nucleoside missing) | 1 score 0-7 |
| RNA1{[moe](T)[sp].[moe](A)[sp].[moe](A)p.[moe](T)p.[moe](A)[sp].d([m5C])[sp].d(T)[sp].d(T)[sp].d(T)[sp].d(T)[sp].d(T)[sp].d([m5C])[sp].d([m5C])[sp].d(A)[sp].d(G)[sp].[moe]([m5C])p.[moe]([m5C])p.[moe](T)[sp].[moe](T)}$$$$ (last 3' nucleoside missing) | 1.5 score 0-7 |
| RNA1{[moe](T)[sp].[moe](A)p.[moe](A)p.[moe](T)p.[moe](A)[sp].d([m5C])[sp].d(T)[sp].d(T)[sp].d(U)[sp].d(T)[sp].d(T)[sp].d([m5C])[sp].d([m5C])[sp].d(A)[sp].d(G)[sp].[moe]([m5C])p.[moe]([m5C])p.[moe](T)[sp].[moe](T)}$$$$ (last 3' nucleoside missing) | 1 score 0-7 |
| RNA1{[moe](T)[sp].[moe](A)p.[moe](A)p.[moe](T)p.[moe](A)[sp].d([m5C])[sp].d(U)[sp].d(T)[sp].d(T)[sp].d(T)[sp].d(T)[sp].d([m5C])[sp].d([m5C])[sp].d(A)[sp].d(G)[sp].[moe]([m5C])p.[moe]([m5C])p.[moe](T)[sp].[moe](T)}$$$$ (last 3' nucleoside missing) | 1 score 0-7 |
| RNA1{[moe](T)[sp].[moe](A)p.[moe](A)p.[moe](T)p.[moe](A)p.[moe]([m5C])p.d(T)[sp].d(T)[sp].d(T)[sp].d(T)[sp].d(T)[sp].d([m5C])[sp].d([m5C])[sp].d(A)[sp].d(G)[sp].d([m5C])[sp].[moe]([m5C])p.[moe](T)[sp].[moe](T)}$$$$ (last 3' nucleoside missing) | 3 score 0-7 |
| RNA1{[moe](T)[sp].[moe](A)p.[moe](A)p.[moe](T)p.[moe](T)[sp].d([m5C])[sp].d(T)[sp].d(T)[sp].d(G)[sp].d([m5C])[sp].d(T)[sp].d(T)[sp].d([m5C])[sp].d(A)[sp].d(A)[sp].[moe]([m5C])p.[moe]([m5C])p.[moe](A)[sp].[moe](T)}$$$$ (last 3' nucleoside missing) | 1.38 score 0-7 |
| RNA1{[moe](T)[sp].[moe](G)[sp].[moe](G)p.[moe]([m5C])p.[moe](A)[sp].d([m5C])[sp].d(A)[sp].d(T)[sp].d(T)[sp].d(T)[sp].d(T)[sp].d(T)[sp].d(T)[sp].d(A)[sp].d(T)[sp].[moe](A)p.[moe](G)p.[moe](A)[sp].[moe](G)}$$$$ (last 3' nucleoside missing) | 3.25 score 0-7 |
| RNA1{[moe](T)[sp].[moe](G)[sp].[moe](T)p.[moe](T)p.[moe](A)[sp].d(A)[sp].d(T)[sp].d(A)[sp].d([m5C])[sp].d(T)[sp].d(T)[sp].d(T)[sp].d(T)[sp].d(T)[sp].d([m5C])[sp].[moe]([m5C])p.[moe](A)p.[moe](G)[sp].[moe]([m5C])}$$$$ (last 3' nucleoside missing) | 1 score 0-7 |
| RNA1{[moe](T)[sp].[moe](G)[sp].[moe]([m5C])p.[moe](T)p.[moe]([m5C])[sp].d(A)[sp].d(T)[sp].d(T)[sp].d(T)[sp].d(A)[sp].d(T)[sp].d(T)[sp].d([m5C])[sp].d(T)[sp].d([m5C])[sp].[moe](A)p.[moe](A)p.[moe](G)[sp].[moe](T)}$$$$ (last 3' nucleoside missing) | 1 score 0-7 |
| RNA1{[moe](T)[sp].[moe](G)p.[moe](A)[sp].[moe](G)[sp].[moe]([m5C])[sp].d([m5C])[sp].d(A)[sp].d(A)[sp].d(T)[sp].d(A)[sp].d(T)[sp].d(T)[sp].d(T)[sp].d(A)[sp].d(T)[sp].[moe](A)[sp].[moe](G)p.[moe](G)[sp].[moe](T)}$$$$ (last 3' nucleoside missing) | 4 score 0-7 |
| RNA1{[moe](T)[sp].[moe](G)p.[moe](G)[sp].[moe]([m5C])[sp].[moe](A)[sp].d([m5C])[sp].d(A)[sp].d(T)[sp].d(T)[sp].d(T)[sp].d(T)[sp].d(T)[sp].d(T)[sp].d(A)[sp].d(T)[sp].[moe](A)[sp].[moe](G)p.[moe](A)[sp].[moe](G)}$$$$ (last 3' nucleoside missing) | 6 score 0-7 |
| RNA1{[moe](T)[sp].[moe](G)p.[moe](G)p.[moe](A)p.[moe](A)[sp].d([m5C])[sp].d(T)[sp].d(A)[sp].d([m5C])[sp].d([m5C])[sp].d(T)[sp].d(T)[sp].d(G)[sp].d([m5C])[sp].d(A)[sp].[moe](T)p.[moe](A)p.[moe]([m5C])[sp].[moe](T)}$$$$ (last 3' nucleoside missing) | 5.38 score 0-7 |
| RNA1{[moe](T)[sp].[moe](G)p.[moe](G)p.[moe](T)p.[moe](T)[sp].d(T)[sp].d(T)[sp].d([m5C])[sp].d(T)[sp].d([m5C])[sp].d(A)[sp].d(T)[sp].d(T)[sp].d(T)[sp].d(T)[sp].[moe](T)p.[moe](A)p.[moe](T)[sp].[moe](A)}$$$$ (last 3' nucleoside missing) | 0 score 0-7 |
| RNA1{[moe](T)[sp].[moe](G)p.[moe](G)p.[moe]([m5C])p.[moe](A)p.[moe]([m5C])p.d(A)[sp].d(T)[sp].d(T)[sp].d(T)[sp].d(T)[sp].d(T)[sp].d(T)[sp].d(A)[sp].d(T)[sp].d(A)[sp].[moe](G)p.[moe](A)[sp].[moe](G)}$$$$ (last 3' nucleoside missing) | 2.75 score 0-7 |
| RNA1{[moe](T)[sp].[moe](G)p.[moe](G)p.[moe]([m5C])p.[moe](A)p.d([m5C])[sp].d(A)[sp].d(T)[sp].d(T)[sp].d(T)[sp].d(T)[sp].d(T)[sp].d(T)[sp].d(A)[sp].d(T)[sp].[moe](A)p.[moe](G)p.[moe](A)[sp].[moe](G)}$$$$ (last 3' nucleoside missing) | 2.5 score 0-7 |
